According to patent US20200172529A1, “Chemical Compound, Pharmaceutical Composition Thereof, and Use and Application Thereof” (Beijing Hanmi Pharm. Co., Ltd., priority 2017, published 2020):

How the values were obtained:
Type in all cases: biochemical
TYK2 kinase = target: T1, TYK2 kinase (Homo sapiens, UniProt P29597); test: Inhibition assay of TYK2 kinase activity (ADP-Glo Kinase Assay)
T1 construct: purchased Life Technologies PR8440C
Outline: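 Enzyme at 0.8 ng/mL (2-fold final) in 40 mM Tris-HCl pH 7.5, 20 mM MgCl2, 0.1 mg/mL BSA, 1 mM DTT, preincubated 10 min with compound (6 points, 10-fold dilutions from 10 μM). ATP plus polyE4Y1 then added for 60 min at room temperature. ADP-Glo luminescence read and IC50 derived.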

JAK1 kinase = JAK1 kinase (Homo sapiens, UniProt P23458); test: Inhibition assay of JAK1 kinase activity (ADP-Glo Kinase Assay)
Text: Inhibition assay of JAK1 kinase activity: the method in ADP-Glo™ Kinase Assay (Promega, V9102) was used to determine the inhibitory activity of the test compounds against JAK1 kinase.

JAK2 kinase = JAK2 kinase (Homo sapiens, UniProt O60674); test: Inhibition assay of JAK2 kinase activity (ADP-Glo Kinase Assay)
Text: Inhibition assay of JAK2 kinase activity: the method in ADP-Glo™ Kinase Assay (Promega, V9102) was used to determine the inhibitory activity of the test compounds against JAK2 kinase.

JAK3 kinase = target: T2, JAK3 kinase (Homo sapiens, UniProt P52333); test: Inhibition assay of JAK3 kinase activity (ADP-Glo Kinase Assay)
T2 sequence (P52333 1-1124): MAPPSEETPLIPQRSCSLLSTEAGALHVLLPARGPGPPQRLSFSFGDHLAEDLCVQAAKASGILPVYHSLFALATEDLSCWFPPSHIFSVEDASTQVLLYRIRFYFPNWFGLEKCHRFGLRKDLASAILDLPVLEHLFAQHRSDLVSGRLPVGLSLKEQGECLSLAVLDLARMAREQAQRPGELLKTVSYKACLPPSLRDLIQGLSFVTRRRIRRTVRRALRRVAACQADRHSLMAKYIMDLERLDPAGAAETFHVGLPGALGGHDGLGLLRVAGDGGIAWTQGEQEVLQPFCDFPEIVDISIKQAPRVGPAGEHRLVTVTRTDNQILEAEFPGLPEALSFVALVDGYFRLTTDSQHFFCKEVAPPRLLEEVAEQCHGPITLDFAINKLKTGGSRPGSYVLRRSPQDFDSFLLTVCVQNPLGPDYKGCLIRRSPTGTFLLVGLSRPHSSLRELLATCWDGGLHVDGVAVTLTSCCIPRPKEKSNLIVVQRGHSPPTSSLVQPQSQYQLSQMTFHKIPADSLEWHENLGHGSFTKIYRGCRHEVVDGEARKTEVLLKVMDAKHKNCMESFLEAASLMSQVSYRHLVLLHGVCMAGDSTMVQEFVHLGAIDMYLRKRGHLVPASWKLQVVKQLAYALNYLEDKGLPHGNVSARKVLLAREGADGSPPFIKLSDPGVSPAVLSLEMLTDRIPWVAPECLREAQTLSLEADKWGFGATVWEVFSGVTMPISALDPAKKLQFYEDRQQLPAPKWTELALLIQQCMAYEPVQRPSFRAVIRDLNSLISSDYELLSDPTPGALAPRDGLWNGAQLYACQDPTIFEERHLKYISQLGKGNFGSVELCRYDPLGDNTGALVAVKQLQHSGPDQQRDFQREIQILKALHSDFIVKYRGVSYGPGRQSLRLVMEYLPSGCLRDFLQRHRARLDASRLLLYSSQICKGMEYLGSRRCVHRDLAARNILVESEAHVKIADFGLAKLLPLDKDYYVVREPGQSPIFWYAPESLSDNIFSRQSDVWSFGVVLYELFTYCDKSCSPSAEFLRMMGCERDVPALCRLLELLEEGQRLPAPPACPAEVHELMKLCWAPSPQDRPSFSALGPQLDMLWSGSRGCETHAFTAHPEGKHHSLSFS
Text: Inhibition assay of JAK3 kinase activity: the method in ADP-Glo™ Kinase Assay (Promega, V9102) was used to determine the inhibitory activity of the test compounds against JAK3 kinase.

SYK kinase = SYK kinase (Homo sapiens, UniProt P43405); test: Inhibition assay of SYK kinase activity (ADP-Glo Kinase Assay)
Text: Inhibition assay of SYK kinase activity: the method in ADP-Glo™ Kinase Assay (Promega, V9102) was used to determine the inhibitory activity of the test compounds against SYK kinase.

T1 sequence (P29597 whole entry): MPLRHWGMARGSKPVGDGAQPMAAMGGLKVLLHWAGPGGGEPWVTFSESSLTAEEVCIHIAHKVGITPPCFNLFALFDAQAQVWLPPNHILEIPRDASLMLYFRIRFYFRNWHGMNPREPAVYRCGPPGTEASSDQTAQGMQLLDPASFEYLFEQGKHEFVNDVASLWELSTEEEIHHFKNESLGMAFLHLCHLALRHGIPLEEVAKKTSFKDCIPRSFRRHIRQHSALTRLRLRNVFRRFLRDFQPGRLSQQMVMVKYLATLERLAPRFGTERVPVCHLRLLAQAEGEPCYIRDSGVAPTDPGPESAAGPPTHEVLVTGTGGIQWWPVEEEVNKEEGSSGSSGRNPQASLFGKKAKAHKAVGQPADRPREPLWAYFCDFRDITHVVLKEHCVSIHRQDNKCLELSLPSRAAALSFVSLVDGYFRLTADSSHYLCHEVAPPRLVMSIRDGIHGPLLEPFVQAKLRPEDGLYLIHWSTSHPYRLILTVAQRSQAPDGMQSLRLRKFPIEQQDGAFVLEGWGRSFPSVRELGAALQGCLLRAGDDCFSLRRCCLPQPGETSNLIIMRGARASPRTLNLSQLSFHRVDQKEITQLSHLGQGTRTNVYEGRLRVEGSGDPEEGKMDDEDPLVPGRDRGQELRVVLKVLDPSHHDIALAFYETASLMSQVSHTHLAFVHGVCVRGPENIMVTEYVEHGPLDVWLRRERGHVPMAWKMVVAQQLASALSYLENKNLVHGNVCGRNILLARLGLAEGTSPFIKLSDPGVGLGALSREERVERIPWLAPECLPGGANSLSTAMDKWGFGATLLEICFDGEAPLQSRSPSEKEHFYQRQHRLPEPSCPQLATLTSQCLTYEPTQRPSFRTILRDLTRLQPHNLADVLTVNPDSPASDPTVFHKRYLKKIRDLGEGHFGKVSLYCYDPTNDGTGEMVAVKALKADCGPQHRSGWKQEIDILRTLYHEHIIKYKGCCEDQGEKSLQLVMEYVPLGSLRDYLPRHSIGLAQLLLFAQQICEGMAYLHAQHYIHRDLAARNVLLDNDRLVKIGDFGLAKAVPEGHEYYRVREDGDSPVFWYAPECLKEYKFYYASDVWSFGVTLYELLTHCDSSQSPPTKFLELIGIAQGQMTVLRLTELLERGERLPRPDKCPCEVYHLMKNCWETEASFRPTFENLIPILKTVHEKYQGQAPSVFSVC
Chain of JAK1 kinase (P23458 whole entry): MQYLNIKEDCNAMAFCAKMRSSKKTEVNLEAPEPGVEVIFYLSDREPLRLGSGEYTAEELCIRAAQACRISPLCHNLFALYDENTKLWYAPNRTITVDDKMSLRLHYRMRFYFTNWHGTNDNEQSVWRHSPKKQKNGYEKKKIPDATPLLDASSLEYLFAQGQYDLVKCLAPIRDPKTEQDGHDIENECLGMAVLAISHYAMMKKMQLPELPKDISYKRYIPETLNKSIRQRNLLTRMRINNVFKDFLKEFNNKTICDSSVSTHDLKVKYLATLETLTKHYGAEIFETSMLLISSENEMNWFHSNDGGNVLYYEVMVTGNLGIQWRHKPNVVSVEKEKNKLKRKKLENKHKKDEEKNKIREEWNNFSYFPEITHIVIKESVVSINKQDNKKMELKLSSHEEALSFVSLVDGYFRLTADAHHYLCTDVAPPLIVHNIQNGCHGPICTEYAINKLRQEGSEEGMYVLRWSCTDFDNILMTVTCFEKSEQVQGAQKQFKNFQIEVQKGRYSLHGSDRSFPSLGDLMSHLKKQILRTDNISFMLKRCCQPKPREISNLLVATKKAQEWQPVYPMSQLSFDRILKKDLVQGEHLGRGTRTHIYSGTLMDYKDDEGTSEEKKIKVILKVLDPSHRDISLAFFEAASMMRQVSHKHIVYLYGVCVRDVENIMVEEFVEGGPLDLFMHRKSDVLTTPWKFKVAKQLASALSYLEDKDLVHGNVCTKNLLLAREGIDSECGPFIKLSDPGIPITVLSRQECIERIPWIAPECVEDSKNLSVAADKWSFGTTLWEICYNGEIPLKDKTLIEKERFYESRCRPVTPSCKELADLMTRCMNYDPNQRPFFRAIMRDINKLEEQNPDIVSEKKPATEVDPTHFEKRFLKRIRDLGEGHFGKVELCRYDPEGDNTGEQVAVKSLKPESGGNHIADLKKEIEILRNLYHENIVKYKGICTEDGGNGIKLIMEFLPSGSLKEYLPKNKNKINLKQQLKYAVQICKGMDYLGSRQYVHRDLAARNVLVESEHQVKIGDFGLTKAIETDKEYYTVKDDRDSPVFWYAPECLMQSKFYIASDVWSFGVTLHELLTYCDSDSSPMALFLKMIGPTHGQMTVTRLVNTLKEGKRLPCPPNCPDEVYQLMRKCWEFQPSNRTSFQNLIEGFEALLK
Chain of JAK2 kinase (O60674 whole entry): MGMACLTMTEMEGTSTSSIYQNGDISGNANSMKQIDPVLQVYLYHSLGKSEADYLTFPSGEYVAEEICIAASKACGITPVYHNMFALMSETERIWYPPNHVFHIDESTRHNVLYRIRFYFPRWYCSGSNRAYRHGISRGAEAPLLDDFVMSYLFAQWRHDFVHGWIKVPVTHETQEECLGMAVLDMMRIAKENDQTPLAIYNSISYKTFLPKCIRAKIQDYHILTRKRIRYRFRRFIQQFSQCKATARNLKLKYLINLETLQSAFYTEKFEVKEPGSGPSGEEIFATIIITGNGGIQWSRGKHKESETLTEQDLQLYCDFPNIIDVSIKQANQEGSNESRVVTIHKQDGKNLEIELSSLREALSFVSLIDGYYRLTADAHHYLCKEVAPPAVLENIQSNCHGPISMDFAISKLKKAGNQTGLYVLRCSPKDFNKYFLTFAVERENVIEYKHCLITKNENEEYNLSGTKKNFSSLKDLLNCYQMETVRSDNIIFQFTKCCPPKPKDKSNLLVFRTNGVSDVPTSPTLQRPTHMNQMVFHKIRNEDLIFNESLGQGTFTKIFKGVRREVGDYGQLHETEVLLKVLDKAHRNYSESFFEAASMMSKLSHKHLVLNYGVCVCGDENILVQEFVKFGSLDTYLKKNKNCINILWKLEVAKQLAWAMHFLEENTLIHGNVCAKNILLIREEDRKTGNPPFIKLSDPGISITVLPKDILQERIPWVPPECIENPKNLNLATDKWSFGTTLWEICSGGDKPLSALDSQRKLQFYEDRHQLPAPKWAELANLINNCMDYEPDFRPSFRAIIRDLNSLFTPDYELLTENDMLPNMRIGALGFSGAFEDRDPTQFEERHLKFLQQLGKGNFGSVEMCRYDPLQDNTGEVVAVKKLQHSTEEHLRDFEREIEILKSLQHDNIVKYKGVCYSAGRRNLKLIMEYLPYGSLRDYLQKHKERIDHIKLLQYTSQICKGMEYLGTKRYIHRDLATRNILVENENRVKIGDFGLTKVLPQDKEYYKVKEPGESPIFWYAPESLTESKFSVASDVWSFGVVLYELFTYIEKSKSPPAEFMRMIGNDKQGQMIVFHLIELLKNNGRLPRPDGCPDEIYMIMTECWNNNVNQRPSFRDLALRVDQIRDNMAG

Row | Structure (SMILES) | IC50 (TYK2 kinase) | IC50 (JAK1 kinase) | IC50 (JAK2 kinase) | IC50 (JAK3 kinase) | IC50 (SYK kinase)
1 | C#CCCNc1nc(Nc2ccc3c(c2)NC[C@H](O)CO3)ncc1C(N)=O [Example 66, 4-(but-3-yn-1-ylamino)-2-(((S)-2,3,4,5-tetrahydro-3-hydroxybenzo[b][1,4]oxazepin-7-yl)amino)pyrimidin-5-carboxamide] | < 0.01 µM | < 0.01 µM | 0.01 to 0.1 µM | 0.01 to 0.1 µM | 0.01 to 0.1 µM
2 | C#CCCCNc1nc(Nc2ccc3c(c2)NC[C@H](O)CO3)ncc1C(N)=O [Example 72, 4-(pent-4-yn-1-ylamino)-2-(((S)-2,3,4,5-tetrahydro-3-hydroxybenzo[b][1,4]oxazepin-7-yl)amino)pyrimidin-5-carboxamide] | < 0.01 µM | < 0.01 µM | < 0.01 µM | < 0.01 µM | 0.01 to 0.1 µM
3 | C=CCNc1nc(Nc2ccc3c(c2)NC[C@H](O)CO3)ncc1C(N)=O [Example 60, 4-(allylamino)-2-(((S)-2,3,4,5-tetrahydro-3-hydroxybenzo[b][1,4]oxazepin-7-yl)amino)pyrimidin-5-carboxamide] | < 0.01 µM | < 0.01 µM | 0.01 to 0.1 µM | 0.01 to 0.1 µM | 0.01 to 0.1 µM
4 | CCO[C@H]1CNc2cc(Nc3ncc(C(N)=O)c(NC4CC4)n3)ccc2OC1 [Example 79, 4-(cyclopropylamino)-2-(((S)-2,3,4,5-tetrahydro-3-ethoxybenzo[b][1,4]oxazepin-7-yl)amino)pyrimidin-5-carboxamide] | < 0.01 µM | < 0.01 µM | 0.01 to 0.1 µM | 0.01 to 0.1 µM | 0.01 to 0.1 µM
5 | CC(Nc1nc(Nc2ccc3c(c2)NC[C@H](O)CO3)ncc1C(N)=O)C1CC1 (stereo partly drawn) [Example 55, 4-((1-cyclopropylethyl)amino)-2-(((S)-2,3,4,5-tetrahydro-3-hydroxybenzo[b][1,4]oxazepin-7-yl)amino)pyrimidin-5-carboxamide] | < 0.01 µM | < 0.01 µM | < 0.01 µM | < 0.01 µM | 
6 | NC(=O)c1cnc(Nc2ccc3c(c2)NC[C@H](O)CO3)nc1NCC1CCCCC1 [Example 50, 4-((cyclohexylmethyl)amino)-2-(((S)-2,3,4,5-tetrahydro-3-hydroxybenzo[b][1,4]oxazepin-7-yl)amino)pyrimidin-5-carboxamide] | < 0.01 µM | 0.01 to 0.1 µM | < 0.01 µM | < 0.01 µM | 
7 | CC(C)CNc1nc(Nc2ccc3c(c2)NC[C@H](O)CO3)ncc1C(N)=O [Example 70, 4-(isobutylamino)-2-(((S)-2,3,4,5-tetrahydro-3-hydroxybenzo[b][1,4]oxazepin-7-yl)amino)pyrimidin-5-carboxamide] | < 0.01 µM | < 0.01 µM | < 0.01 µM | < 0.01 µM | 
8 | NC(=O)c1cnc(Nc2ccc3c(c2)NCC(O)CO3)nc1NC1CC1 (stereo not shown) [Example 2, 4-(cyclopropylamino)-2-((3-hydroxy-2,3,4,5-tetrahydro-benzo[b][1,4]oxazepin-7-yl)amino)pyrimidin-5-carboxamide] | < 0.01 µM | < 0.01 µM | 0.01 to 0.1 µM | < 0.01 µM | 
9 | NC(=O)c1cnc(Nc2ccc3c(c2)NC[C@H](O)CO3)nc1Nc1ccc2[nH]ccc2c1 [Example 34, 4-((1H-indol-5-yl)amino)-2-(((S)-2,3,4,5-tetrahydro-3-hydroxybenzo[b][1,4]oxazepin-7-yl)amino)pyrimidin-5-carboxamide] | < 0.01 µM | < 0.01 µM | < 0.01 µM | < 0.01 µM | 
10 | COCCCCO[C@H]1CNc2cc(Nc3ncc(C(N)=O)c(NC4CC4)n3)ccc2OC1 [Example 100, 4-(cyclopropylamino)-2-(((S)-2,3,4,5-tetrahydro-3-(4-methoxybutoxy)benzo[b][1,4]oxazepin-7-yl)amino)pyrimidin-5-carboxamide] | < 0.01 µM | < 0.01 µM |  |  | 0.01 to 0.1 µM
11 | CS(=O)(=O)CCNc1nc(Nc2ccc3c(c2)NC[C@H](O)CO3)ncc1C(N)=O [Example 67, 4-((2-methanesulfonylethyl)amino)-2-(((S)-2,3,4,5-tetrahydro-3-hydroxybenzo[b][1,4]oxazepin-7-yl)amino)pyrimidin-5-carboxamide] | < 0.01 µM | 0.01 to 0.1 µM | 0.01 to 0.1 µM | 0.01 to 0.1 µM | 
12 | NC(=O)c1cnc(Nc2ccc3c(c2)NCC(O)CO3)nc1NC1CCC1 (stereo not shown) [Example 1, 4-(cyclobutylamino)-2-((3-hydroxy-2,3,4,5-tetrahydro-benzo[b][1,4]oxazepin-7-yl)amino)pyrimidin-5-carboxamide] | < 0.01 µM | < 0.01 µM |  |  | 0.01 to 0.1 µM

The next lines start with the values.

Row | IC50 (TYK2 kinase) | IC50 (JAK1 kinase) | IC50 (JAK2 kinase) | IC50 (JAK3 kinase) | IC50 (SYK kinase) | Structure (SMILES)
13 | < 0.01 µM | < 0.01 µM | < 0.01 µM | 0.01 to 0.1 µM | 0.01 to 0.1 µM | [2H]C([2H])([2H])O[C@H]1CNc2cc(Nc3ncc(C(N)=O)c(NC4CC4)n3)ccc2OC1 [Example 87, 4-(cyclopropylamino)-2-(((S)-2,3,4,5-tetrahydro-3-(trideuteromethoxy)benzo[b][1,4]oxazepin-7-yl)amino)pyrimidin-5-carboxamide]
14 | < 0.01 µM |  | < 0.01 µM | < 0.01 µM | 0.01 to 0.1 µM | CO[C@H]1CNc2cc(Nc3ncc(C(N)=O)c(NC4C5CC6CC4CC(O)(C6)C5)n3)ccc2OC1 (stereo partly drawn) [Example 90, 4-((5-hydroxyadamantan-2-yl)amino)-2-(((S)-2,3,4,5-tetrahydro-3-methoxybenzo[b][1,4]oxazepin-7-yl)amino)pyrimidin-5-carboxamide]
15 | < 0.01 µM | < 0.01 µM | 0.01 to 0.1 µM | 0.01 to 0.1 µM | 0.01 to 0.1 µM | CC(C)OCCO[C@H]1CNc2cc(Nc3ncc(C(N)=O)c(NC4CC4)n3)ccc2OC1 [Example 96, 4-(cyclopropylamino)-2-(((S)-2,3,4,5-tetrahydro-3-(2-isopropoxyethoxy)benzo[b][1,4]oxazepin-7-yl)amino)pyrimidin-5-carboxamide]
16 | < 0.01 µM | < 0.01 µM | 0.01 to 0.1 µM | < 0.01 µM | 0.01 to 0.1 µM | CCOCCO[C@H]1CNc2cc(Nc3ncc(C(N)=O)c(NC4CC4)n3)ccc2OC1 [Example 95, 4-(cyclopropylamino)-2-(((S)-2,3,4,5-tetrahydro-3-(2-ethoxyethoxy)benzo[b][1,4]oxazepin-7-yl)amino)pyrimidin-5-carboxamide]
17 | < 0.01 µM | < 0.01 µM |  |  | 0.01 to 0.1 µM | NC(=O)c1cnc(Nc2ccc3c(c2)NC[C@H](OCC2CCCCO2)CO3)nc1NC1CC1 (stereo partly drawn) [Example 99, 4-(cyclopropylamino)-2-(((S)-2,3,4,5-tetrahydro-3-(tetrahydro-2H-2-pyranylmethoxy)benzo[b][1,4]oxazepin-7-yl)amino)pyrimidin-5-carboxamide]
18 | < 0.01 µM | 0.01 to 0.1 µM | < 0.01 µM | 0.01 to 0.1 µM | 0.01 to 0.1 µM | COCCO[C@@H]1CNc2cc(Nc3ncc(C(N)=O)c(NC4CC4)n3)ccc2OC1 [Example 86, 4-(cyclopropylamino)-2-(((R)-2,3,4,5-tetrahydro-3-methoxyethoxybenzo[b][1,4]oxazepin-7-yl)amino)pyrimidin-5-carboxamide]
19 | < 0.01 µM | < 0.01 µM | 0.01 to 0.1 µM | 0.01 to 0.1 µM | 0.01 to 0.1 µM | COCCOCCO[C@H]1CNc2cc(Nc3ncc(C(N)=O)c(NC4CC4)n3)ccc2OC1 [Example 89, 4-(cyclopropylamino)-2-(((S)-2,3,4,5-tetrahydro-3-(2-(2-methoxyethoxy)ethoxy)benzo[b][1,4]oxazepin-7-yl)amino)pyrimidin-5-carboxamide]
